This note sets out measurements from article PMC9320114 (Molecules, 2022).

Read-outs that look alike come from different tables or passages of the source.

Assay [1] concerns the target MurC (Escherichia coli, UniProt P17952). Nature of the assay: Inhibition of MurC, colorimetric malachite green method. The format is biochemical, bacterial. The settings on record: for remaining activity at 50 µM / remaining activity at 100 µM: 0.25 h; for remaining activity at 50 µM: read-out: MurC (RA [%]); for remaining activity at 100 µM: residual activity at 100 µM, read-out: MurC RA (%). How it is done:
(§1) Inhibition of Mur enzymes was monitored with the colorimetric malachite green method, which measured orthophosphate formed during reaction. The mixtures with a final volume of 50 µL contained:
MurC: 50 mM HEPES-NaOH, pH 8.0, 5 mM MgCl2, 0.005% Triton X-114, 120 µM L-Ala, 120 µM UDP-N-acetyl-muramic acid, 450 µM ATP, purified MurC, and 50 or 100 µM of each compound tested.
(§2) All compounds were soluble in the assay mixtures containing 5% DMSO (v/v). After incubation for 15 min (20 min for DdlB) at 37 °C, the enzyme reaction was terminated by addition of Biomol® reagent (100 µL) and absorbance was measured after 5 min at 650 nm (Synergy™ H4 microplate reader; BioTek Instruments, Inc., BioTek Gen5 Data Analysis Software, version 2.9, Santa Clara, CA, USA). All experiments were performed in duplicate.

Assay [2] concerns the target DdlB (Escherichia coli, UniProt P07862). The assay can be described thus: Inhibition of DdlB, colorimetric malachite green method. The settings on record: 20 min, read-out: DdlB (RA [%]). The format is biochemical, bacterial. As to the method: as §1
DdlB: 50 mM HEPES-NaOH, pH 8.0, 5 mM MgCl2, 6.5 mM (NH4)2SO4, 10 mM KCl, 0.005% Triton X-114, 700 µM D-Ala, 500 µM ATP, purified DdlB, and 50 µM of each compound tested.
as §2

Assay [3] addresses human butyrylcholinesterase (hBChE) (Homo sapiens, UniProt P06276). Nature of the assay: biochemical. The format is biochemical. As to the method:
(§3) Enzyme solutions were prepared by diluting the concentrated enzyme stock solutions (4.6 mg/mL in 10 mM MES-NaOH buffer, pH 6.5) in a sodium phosphate-buffered solution (0.1 M, pH 8.0). […] The final organic solvent (DMSO) content was always 1% (v/v). Reactions were initiated by adding the substrate to the enzyme and inhibitor, which were preincubated for 5 min. […] To determine the blank value (b), the enzyme solution was replaced by a phosphate-buffered solution. The initial velocity (v) was calculated from the slope of the linear trend obtained, with each measurement performed in triplicate. The inhibitory potencies were expressed as RA=(vi − b)/(vo − b), where vi is the velocity in the presence of the test compounds and vo is the control velocity in the presence of DMSO. Seven different concentrations of each compound were used for the IC50 measurements. IC50 values were obtained by plotting the residual enzyme activities against the applied inhibitor concentrations, fitting the experimental data to the 4-parameter Hill equation:(1) Y=Bottom+(Top−Bottom)/1+10^((LogIC50−X)×Hill Slope) where X is the logarithm of the inhibitor concentration, and Y is the residual activity. GraphPad Prism 8.2.0 (GraphPad Software, San Diego, CA, USA) was used for the fitting procedure.

The target of assay [4] is T1, murine acetylcholinesterase (mAChE) (Mus musculus, UniProt P21836).
T1 sequence (P21836 32-614): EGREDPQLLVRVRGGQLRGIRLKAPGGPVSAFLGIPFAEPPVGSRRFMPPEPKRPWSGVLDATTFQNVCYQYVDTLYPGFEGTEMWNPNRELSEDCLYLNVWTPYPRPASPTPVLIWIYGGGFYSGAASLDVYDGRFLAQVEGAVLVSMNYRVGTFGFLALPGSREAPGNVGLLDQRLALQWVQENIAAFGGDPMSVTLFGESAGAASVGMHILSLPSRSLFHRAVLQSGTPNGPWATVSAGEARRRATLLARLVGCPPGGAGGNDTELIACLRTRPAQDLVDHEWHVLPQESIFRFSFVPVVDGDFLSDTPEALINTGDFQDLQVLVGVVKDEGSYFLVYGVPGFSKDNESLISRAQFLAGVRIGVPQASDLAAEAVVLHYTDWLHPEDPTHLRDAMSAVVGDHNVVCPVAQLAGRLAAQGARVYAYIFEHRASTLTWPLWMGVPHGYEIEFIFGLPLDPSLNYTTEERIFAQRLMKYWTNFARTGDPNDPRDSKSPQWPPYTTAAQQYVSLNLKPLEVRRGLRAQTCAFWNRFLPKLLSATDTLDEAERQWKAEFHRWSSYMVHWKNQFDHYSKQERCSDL
The assay can be described thus: biochemical. The format is biochemical. The settings on record: for mAChE RA (%) / remaining activity at 10 µM / RA (mAChE, 10 µM): residual activity at 10 µM; for remaining activity at 10 µM: read-out: mAChE RA (%); for RA (mAChE, 10 µM): Figure 1. How it is done:
as §3

The target in assay [5] is T2, hMAO-B (Homo sapiens, UniProt P27338).
T2 construct: purchased Sigma Aldrich; host or cells: BTI-TN-5B1-4 baculovirus-infected insect cells
T2 sequence (P27338 1-520): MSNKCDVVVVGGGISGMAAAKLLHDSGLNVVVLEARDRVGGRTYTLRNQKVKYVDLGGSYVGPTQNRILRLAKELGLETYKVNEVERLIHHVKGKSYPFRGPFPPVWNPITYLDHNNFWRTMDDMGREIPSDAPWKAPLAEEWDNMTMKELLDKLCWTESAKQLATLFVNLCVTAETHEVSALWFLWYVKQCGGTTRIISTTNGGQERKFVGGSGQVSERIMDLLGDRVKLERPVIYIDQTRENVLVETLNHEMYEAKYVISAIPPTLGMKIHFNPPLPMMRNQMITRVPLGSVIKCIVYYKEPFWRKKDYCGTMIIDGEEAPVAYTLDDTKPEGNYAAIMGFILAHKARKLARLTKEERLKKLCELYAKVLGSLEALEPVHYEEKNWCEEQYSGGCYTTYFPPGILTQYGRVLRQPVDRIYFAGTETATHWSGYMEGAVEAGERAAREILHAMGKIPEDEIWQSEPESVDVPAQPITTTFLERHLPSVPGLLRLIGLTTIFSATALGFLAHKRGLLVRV
The assay can be described thus: biochemical. As to conditions: for IC50: IC50 ± SEM. The source says:
The effects of the compounds on hMAO-A and hMAO-B were investigated using a fluorimetric assay, following a method previously described in the literature. Recombinant human microsomal hMAO enzymes expressed in BTI-TN-5B1-4 baculovirus-infected insect cells, horseradish peroxidase (HRP, type II, lyophilized powder), and p-tyramine hydrochloride were purchased from Sigma Aldrich. 10-Acetyl-3,7-dihydroxyphenoxazine (Amplex Red reagent) was synthesized as described in the literature.
After preincubation, the reaction was started by adding final concentrations of 200 µM Amplex Red reagent, 2 U/mL HRP, and 1 mM p-tyramine hydrochloride. Resorufin production was quantified based on the fluorescence produced (λex = 530 nm; λem = 590 nm) at 37 °C over a 20 min period. For the control experiments, DMSO was used instead of appropriate dilutions of the compounds in DMSO. For the determination of blank (b), the enzyme solution was replaced by a phosphate-buffered solution. Initial velocities were calculated from the obtained trend, with each measurement performed in duplicate. Specific fluorescence emission to determine the final results was calculated after subtracting the blank activity (b). Inhibitory potencies were expressed as RAs, and IC50 values were calculated as described in the section “Inhibition of hBChE and mAChE” above.

Setting [6] is: residual activity at 10 µM; Mini Library screen, Table S1.
Where [7] appears, read: residual activity at 10 µM, Mini Library screen, Table S1, read-out: hMAO-B (RA [%]).
Where [8] appears, read: residual activity at 10 µM; Table 4; read-out: hBChE RA (%).
The mark [9] stands for this setting: residual activity at 10 µM; Table 1; read-out: hBChE RA (%).
Where [10] appears, read: residual activity at 10 µM, Table 3, read-out: hMAO-B RA (%).

Sequence of MurC (P17952 whole entry): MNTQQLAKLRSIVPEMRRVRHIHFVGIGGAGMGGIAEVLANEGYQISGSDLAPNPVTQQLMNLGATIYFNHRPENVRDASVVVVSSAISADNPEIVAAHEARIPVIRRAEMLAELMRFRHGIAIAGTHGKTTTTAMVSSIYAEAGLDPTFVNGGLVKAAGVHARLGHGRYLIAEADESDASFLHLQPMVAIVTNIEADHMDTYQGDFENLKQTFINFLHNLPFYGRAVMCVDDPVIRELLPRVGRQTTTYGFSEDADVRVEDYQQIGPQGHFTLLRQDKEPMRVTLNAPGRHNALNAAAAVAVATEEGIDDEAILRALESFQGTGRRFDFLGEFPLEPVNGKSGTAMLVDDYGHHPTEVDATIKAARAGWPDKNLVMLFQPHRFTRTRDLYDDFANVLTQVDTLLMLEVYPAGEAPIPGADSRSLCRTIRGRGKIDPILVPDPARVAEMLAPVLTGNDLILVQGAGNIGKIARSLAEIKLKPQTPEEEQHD
Sequence of human butyrylcholinesterase (hBChE) (P06276 29-602): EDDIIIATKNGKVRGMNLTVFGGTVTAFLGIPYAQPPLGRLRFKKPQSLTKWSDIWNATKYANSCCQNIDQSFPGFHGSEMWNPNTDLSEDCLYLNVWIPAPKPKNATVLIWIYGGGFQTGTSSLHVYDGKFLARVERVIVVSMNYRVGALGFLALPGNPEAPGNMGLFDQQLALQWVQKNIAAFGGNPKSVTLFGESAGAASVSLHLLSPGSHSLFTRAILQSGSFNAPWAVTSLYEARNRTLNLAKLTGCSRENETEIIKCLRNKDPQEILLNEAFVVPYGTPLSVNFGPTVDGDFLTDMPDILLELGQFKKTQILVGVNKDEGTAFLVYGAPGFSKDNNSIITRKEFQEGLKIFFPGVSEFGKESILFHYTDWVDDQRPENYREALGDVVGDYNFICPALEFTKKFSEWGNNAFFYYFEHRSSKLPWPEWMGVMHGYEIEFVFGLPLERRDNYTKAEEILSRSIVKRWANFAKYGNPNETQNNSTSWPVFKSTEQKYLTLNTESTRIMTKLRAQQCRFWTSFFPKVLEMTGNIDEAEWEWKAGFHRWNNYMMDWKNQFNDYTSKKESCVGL

As a reminder, the IC50 is the concentration that inhibits the measured activity by half. Regarding `CCCCc1nc2ccn(Cc3ccccc3)c(=O)c2n1Cc1ccc(-c2ccccc2-c2nnn[nH]2)cc1` [MS-ML03], in assay [1], the half-inhibitory concentration (IC50) was 85000 ± 15000 nM. Moreover, the remaining activity at 50 µM in assay [1] was 61%; in assay [2] it was 81%. Moreover, the remaining activity at 100 µM in assay [1] (Table 2) is 40%. In addition, the “hBChE RA (%)” value in assay [3] (setting [6]) worked out at 87%. The “mAChE RA (%)” value in assay [4] (Mini Library screen, Table S1) was determined as 92%. For the same compound, the remaining activity at 10 µM in assay [5] (setting [7]) came out at 97%.

Turning to `CCCCc1nc2ccn(CC(=O)N3CCCCC3)c(=O)c2n1Cc1ccc(-c2ccccc2S(=O)(=O)NC(=O)OCc2ccccc2)cc1F` [MS-ML05], the figures for the remaining activity at 50 µM in assay [1] and in assay [2] were 55% and 91%, respectively. Moreover, in assay [1] (Table 2), the remaining activity at 100 µM is 32%. Further, the half-inhibitory concentration (IC50) in assay [1] (Table 2, IC50 ± SEM, read-out: MurC IC50) turned out to be 101000 ± 23000 nM. For the same compound, the “hBChE RA (%)” value in assay [3] (setting [6]) came out at 91%. Besides, the “mAChE RA (%)” value in assay [4] (Mini Library screen, Table S1) amounted to 96%. In addition, in assay [5] (setting [7]), the remaining activity at 10 µM came out at 93%.

Turning to `C1=C(c2ccccc2)CCN(CCCCc2c[nH]c3ccccc23)C1` [MS-ML10], the remaining activity at 50 µM in assay [1] is 74%; in assay [2], 96%. Besides, the IC50 in assay [3] (Table 4; IC50 ± SEM; read-out: hBChE IC50) came out at 35.6 ± 0.3 nM. Besides, the remaining activity at 10 µM in assay [3] (setting [8]) was determined as 0%; in assay [4] (Table 4), 64%; in assay [5] (setting [7]), 82%. Also, the “mAChE RA (%)” value in assay [4] (Mini Library screen, Table S1) is recorded as 64%.

Regarding `Oc1ccc2[nH]cc(CCCCN3CC=C(c4ccccc4)CC3)c2c1` [MS-ML11], the remaining activity at 50 µM in assay [1] is 89%; in assay [2] it was 95%. The IC50 in assay [3] (read-out: hBChE IC50; Table 4; IC50 ± SEM) was 78.8 ± 10.3 nM. The remaining activity at 10 µM was 0% in assay [3] (setting [8]), 82% in assay [4] (Table 4) and 45% in assay [5] (setting [7]). Moreover, the “mAChE RA (%)” value in assay [4] (Mini Library screen, Table S1) amounted to 82%.

On to `CCCCCCN(Cc1ccc(C#Cc2ccc(CCCC)cc2)cc1)c1ccc(O)c(C(=O)O)c1` [MS-ML24], for which the remaining activity at 50 µM was found to be 83% in assay [1] and 116% in assay [2]. Further, the half-inhibitory concentration (IC50) was found to be 949 ± 46 nM in assay [3] (Table 1; IC50 ± SEM; read-out: hBChE IC50); 414 ± 40 nM in assay [4] (Mini Library screen, Table S1); 294 ± 25 nM in assay [4] (Table 1, IC50 ± SEM). Besides, in assay [3] (setting [6]), the “hBChE RA (%)” value amounted to 60%. The results for the remaining activity at 10 µM in assay [3] (setting [9]), in assay [4] (Table 1) and in assay [5] (setting [7]) were 9%, 1% and 64%, respectively. For the same compound, the “RA (mAChE, 10 µM)” value in assay [4] is on record as 1%.

As for `CCCCCCN(Cc1ccc(C#Cc2ccc(CCCC)cc2)cc1)C(=O)c1ccc(O)c(C(=O)O)c1` [MS-ML25], the remaining activity at 50 µM in assay [1] worked out at 98%; in assay [2] it was 114%. Besides, the “hBChE RA (%)” value in assay [3] (setting [6]) is listed as 108%. Also, the remaining activity at 10 µM in assay [3] (setting [9]) amounted to 55%; in assay [4] (Table 1), 3%; in assay [5] (setting [7]), 77%. The IC50 in assay [4] (Mini Library screen, Table S1) turned out to be 369 ± 55 nM; in assay [4] (Table 1, IC50 ± SEM), 485 ± 79 nM. Moreover, the “RA (mAChE, 10 µM)” value in assay [4] was 3%.

For `CCCCCCN(Cc1ccc(C#Cc2ccc(CCCC)cc2)cc1)c1ccc(F)c(C(=O)O)c1` [MS-ML26], the remaining activity at 50 µM in assay [1] was found to be 73%; in assay [2], 114%. Besides, the “hBChE RA (%)” value in assay [3] (setting [6]) is 68%. The remaining activity at 10 µM in assay [3] (setting [9]) is 57%; in assay [4] (Table 1), 8%; in assay [5] (setting [7]) it was 92%. Moreover, the IC50 in assay [4] (Mini Library screen, Table S1) is 359 ± 39 nM; in assay [4] (Table 1, IC50 ± SEM), 275 ± 60 nM. Also, the “RA (mAChE, 10 µM)” value in assay [4] was 8%.

For the compound `O=C(OC[C@H]1CCCN1c1ccnc2ncnn12)c1ccc(Oc2ccccc2)nc1` [MS-ML31], the figures for the remaining activity at 50 µM in assay [1] and in assay [2] were 94% and 98%, respectively. In assay [3] (setting [6]), the “hBChE RA (%)” value came to 84%. Besides, the “mAChE RA (%)” value in assay [4] (Mini Library screen, Table S1) worked out at 89%. This compound had a 50% inhibitory concentration (IC50) in assay [5] (Table 3) of 912 ± 122 nM. For the same compound, the remaining activity at 10 µM in assay [5] (setting [7]) worked out at 13%; in assay [5] (setting [10]), 17%. The “hMAO-B RA [%]” value in assay [5] (residual activity at 10 µM, Table S3) is listed as 17%.

As for `O=C(Nc1ccc(Oc2ccncc2)cc1)Nc1cc(C(F)(F)F)ccc1-n1cncn1` [MS-ML80], the remaining activity at 50 µM in assay [1] turned out to be 96%; in assay [2], 94%. The “hBChE RA (%)” value in assay [3] (setting [6]) turned out to be 73%. The “mAChE RA (%)” value in assay [4] (Mini Library screen, Table S1) was 95%. The same compound showed an IC50 in assay [5] (Table 3) of 405 ± 76 nM. Moreover, the figures for the remaining activity at 10 µM in assay [5] (setting [7]) and in assay [5] (setting [10]) were 11% and 10%, respectively.
